Experimental data reported in the supplement of paper PMC10307832.

Key:
Assay in all cases: relative viability (nuclei count vs DMSO), 5 days (fraction); higher = more cells survive
[1] = compound: OCc1c[nH]c2ccccc12 [Indole-3-carbinol] + CC(=O)Nc1cccc(-n2c(=O)n(C3CC3)c(=O)c3c(Nc4ccc(I)cc4F)n(C)c(=O)c(C)c32)c1 [Trametinib] (partner 0.02 µM)
In short: (§1)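 Each reported value is a median over duplicate plates. It expresses relative viability: treated-well nuclei count divided by vehicle-well nuclei count. Lung cancer cell lines in 1536-well plates were dosed by pin tool a day after seeding, alone with one drug or with a fixed anchor-drug dose plus five library-drug doses (not always all listed) in √10 steps, and nuclei were counted after 5 days.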

[2] = compound: OCc1c[nH]c2ccccc12 [Indole-3-carbinol] + CS(=O)(=O)N1CCN(Cc2cc3nc(-c4cccc5[nH]ncc45)nc(N4CCOCC4)c3s2)CC1 [Pictilisib] (partner 1 µM)
In short: as §1

[3] = compound: OCc1c[nH]c2ccccc12 [Indole-3-carbinol] + C[C@@H](Oc1cc(-c2cnn(C3CCNCC3)c2)cnc1N)c1c(Cl)ccc(F)c1Cl [Crizotinib] (partner 1 µM)
In short: as §1

[4] = compound: OCc1c[nH]c2ccccc12 [Indole-3-carbinol] + NC(=O)Nc1cc(-c2cccc(F)c2)sc1C(=O)N[C@H]1CCCNC1 [AZD7762] (partner 0.2 µM)
In short: as §1

[5] = compound: OCc1c[nH]c2ccccc12 [Indole-3-carbinol] + O=C(c1cc(Cc2n[nH]c(=O)c3ccccc23)ccc1F)N1CCN(C(=O)C2CC2)CC1 [Olaparib] (partner 8 µM)
In short: as §1

Cell Line | relative viability ([1]; first compound 0.253 µM) | relative viability ([1]; first compound 0.8 µM) | relative viability ([1]; first compound 2.53 µM) | relative viability ([1]; first compound 8 µM) | relative viability ([2]; first compound 0.253 µM) | relative viability ([2]; first compound 0.8 µM) | relative viability ([2]; first compound 2.53 µM) | relative viability ([2]; first compound 8 µM) | relative viability ([3]; first compound 0.253 µM) | relative viability ([3]; first compound 0.8 µM) | relative viability ([3]; first compound 2.53 µM) | relative viability ([3]; first compound 8 µM) | relative viability ([4]; first compound 0.253 µM) | relative viability ([4]; first compound 0.8 µM) | relative viability ([4]; first compound 2.53 µM) | relative viability ([4]; first compound 8 µM) | relative viability ([5]; first compound 0.253 µM) | relative viability ([5]; first compound 0.8 µM) | relative viability ([5]; first compound 2.53 µM) | relative viability ([5]; first compound 8 µM)
NCI-H596 | 0.779 | 0.829 | 0.809 | 0.762 | 0.368 | 0.416 | 0.364 | 0.411 | 0.876 | 1.13 | 0.989 | 1 | 1.06 | 1.07 | 1.11 | 1.06 | 0.602 | 0.738 | 0.451 | 0.653
NCI-H1755 | 0.784 | 0.737 | 0.815 | 0.733 | 0.401 | 0.318 | 0.442 | 0.424 | 0.916 | 0.97 | 0.862 | 0.888 | 0.463 | 0.42 | 0.5 | 0.42 | 0.894 | 0.926 | 0.929 | 0.872
NCI-H647 | 0.562 | 0.405 | 0.508 | 0.524 | 0.469 |  | 0.489 | 0.437 | 1.23 | 1.13 | 1.04 | 1.01 | 0.604 | 0.293 | 0.463 | 0.551 | 0.578 | 0.735 | 0.693 | 0.409
HCC-15 | 0.414 | 0.458 | 0.391 | 0.395 | 0.714 | 0.773 | 0.735 | 0.719 | 0.79 | 0.879 | 0.852 | 0.763 | 1.31 | 1.14 | 1.38 | 1.26 | 0.722 | 0.747 | 0.684 | 0.685
NCI-H2126 | 0.573 | 0.577 | 0.541 | 0.509 | 0.469 | 0.483 | 0.518 | 0.498 | 1.01 | 1.05 | 1.02 | 1.03 | 0.999 | 1.08 | 1.02 | 1.01 | 0.859 | 1 | 0.934 | 0.87
NCI-H2085 | 0.884 | 0.514 | 0.56 | 0.622 | 0.41 | 0.389 | 0.444 | 0.503 | 0.897 | 0.738 | 0.832 | 0.786 | 0.965 | 1.01 | 1.05 | 0.893 | 0.9 | 0.844 | 0.773 | 0.691
BEN | 0.995 | 1.14 | 1.03 | 0.936 | 0.497 | 0.456 | 0.69 | 0.542 | 0.857 | 0.722 | 0.917 | 0.743 | 0.635 | 0.706 | 0.732 | 0.784 | 1.09 | 1.05 | 1.12 | 1.06
NCI-H650 | 1.13 | 0.958 | 1.04 | 0.956 | 0.899 | 0.871 | 0.929 | 0.913 | 0.716 | 0.729 | 0.8 | 0.638 | 1.01 | 1.21 | 0.967 | 1.04 | 0.395 | 0.403 | 0.418 | 0.359
LCLC-103H | 0.701 | 0.614 | 0.651 | 0.571 | 0.546 | 0.537 | 0.702 | 0.476 | 1.13 | 1.12 | 1.01 | 0.977 | 0.802 | 0.786 | 0.86 | 0.81 | 0.732 | 0.734 | 0.763 | 0.633
PC-14 | 0.7 | 0.729 | 0.818 | 0.711 | 0.738 | 0.875 | 0.735 | 0.652 | 0.936 | 1.04 | 0.903 | 0.883 | 0.342 | 0.315 | 0.331 | 0.327 | 0.292 | 0.285 | 0.268 | 0.221
NCI-H1915 | 0.282 | 0.294 | 0.342 | 0.296 | 0.901 | 0.858 | 0.949 | 0.926 | 0.881 | 0.852 | 0.892 | 0.924 | 0.655 | 0.625 | 0.767 | 0.737 | 0.253 | 0.243 | 0.282 | 0.25
